According to patent US12290513B2, “Therapeutic methods and compositions for treating movement disorders” (Vima Therapeutics, Inc., priority 2023, dated 2025):
Blank lines part the entries; values can stand above or below the compound they belong to.

How the values were obtained:
tear production = test: THP-induced dry eye in dogs: tear production; type: in vivo, Beagles; conditions: oral, 2 mpk alone
[1] = tested on: guinea pig ileum myenteric plexus-longitudinal muscle (MPLM) strips; test: EFS-induced contractions in guinea pig ileum MPLM strips
[2] = Whole blood stability, rat; conditions: rat whole blood, 37C
Experimental: (§1) Procedures for blood Stability. • A. 398 μL of blood from each species was added to an incubation plate, which was pre-warmed at 37C for 15 minutes. • B. After the pre-incubation, 2 μL of working solution (test compounds or control compounds) was spiked to 398 μL of blood to reach a final concentration of 1 μM for test compounds and 5 μM for control compounds. The final concentration of organic solvents is 0.5%. The assays were performed in duplicate. • C. The reaction samples were incubated at 37C. • D. Aliquots of 50 μL were taken from the reaction samples at 0, 15, 30, 60 and 120 minutes. The reaction was stopped by the addition of 50 μL ultrapure water and 400 μL cold acetonitrile. • E. All samples were vortexed for 10 minutes, followed by centrifugation at 3,220 g for 40 minutes to precipitate proteins. 100 μL of the supernatant was then transferred to a new plate. The supernatant was diluted with ultrapure water as needed for detection by LC-MS/MS. Sample Analysis
(§2) Samples were analyzed by LC-MS/MS to measure the concentration of the test compounds.
(§3) All calculations were carried out using Microsoft Excel and according to standard analysis methods that are known in the art.

[3] = Whole blood stability, dog
Experimental: as §1, §2, §3

[4] = Whole blood stability, human
Experimental: as §1, §2, §3

CYP2C9 = CYP2C9 (Homo sapiens, UniProt P11712); test: Incubation with recombinant CYP2C9
Chain of CYP2C9 (P11712 whole entry): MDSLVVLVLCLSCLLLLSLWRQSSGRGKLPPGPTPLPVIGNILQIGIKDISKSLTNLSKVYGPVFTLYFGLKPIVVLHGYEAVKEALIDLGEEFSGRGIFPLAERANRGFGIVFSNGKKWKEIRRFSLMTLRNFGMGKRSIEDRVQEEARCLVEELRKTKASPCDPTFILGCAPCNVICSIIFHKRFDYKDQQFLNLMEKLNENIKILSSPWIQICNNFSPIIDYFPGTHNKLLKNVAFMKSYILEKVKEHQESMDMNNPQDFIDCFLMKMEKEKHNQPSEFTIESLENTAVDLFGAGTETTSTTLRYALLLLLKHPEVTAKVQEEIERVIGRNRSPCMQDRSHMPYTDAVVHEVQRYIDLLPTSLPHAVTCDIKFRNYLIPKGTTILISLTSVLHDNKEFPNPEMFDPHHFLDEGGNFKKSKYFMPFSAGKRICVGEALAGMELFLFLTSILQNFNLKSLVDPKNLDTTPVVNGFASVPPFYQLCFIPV

CYP1A2 = molecular target: T1, CYP1A2 (Homo sapiens, UniProt P05177); test: Incubation with recombinant CYP1A2
T1 sequence (P05177 1-516): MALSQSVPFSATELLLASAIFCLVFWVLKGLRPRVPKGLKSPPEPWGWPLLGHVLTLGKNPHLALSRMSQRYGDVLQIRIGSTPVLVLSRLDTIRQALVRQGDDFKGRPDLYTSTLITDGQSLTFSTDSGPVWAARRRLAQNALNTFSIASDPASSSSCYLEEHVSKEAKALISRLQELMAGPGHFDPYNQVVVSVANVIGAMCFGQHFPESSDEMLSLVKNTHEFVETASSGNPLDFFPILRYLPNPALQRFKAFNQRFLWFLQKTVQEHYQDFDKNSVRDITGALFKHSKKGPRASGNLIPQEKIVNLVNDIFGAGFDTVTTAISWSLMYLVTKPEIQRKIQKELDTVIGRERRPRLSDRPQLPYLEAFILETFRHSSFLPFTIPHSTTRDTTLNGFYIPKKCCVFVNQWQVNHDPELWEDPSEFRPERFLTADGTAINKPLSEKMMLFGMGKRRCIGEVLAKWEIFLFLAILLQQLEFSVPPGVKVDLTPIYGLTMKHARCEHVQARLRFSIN

CYP2A6 = molecular target: T2, CYP2A6 (Homo sapiens, UniProt P11509); test: Incubation with recombinant CYP2A6
T2 sequence (P11509 1-494): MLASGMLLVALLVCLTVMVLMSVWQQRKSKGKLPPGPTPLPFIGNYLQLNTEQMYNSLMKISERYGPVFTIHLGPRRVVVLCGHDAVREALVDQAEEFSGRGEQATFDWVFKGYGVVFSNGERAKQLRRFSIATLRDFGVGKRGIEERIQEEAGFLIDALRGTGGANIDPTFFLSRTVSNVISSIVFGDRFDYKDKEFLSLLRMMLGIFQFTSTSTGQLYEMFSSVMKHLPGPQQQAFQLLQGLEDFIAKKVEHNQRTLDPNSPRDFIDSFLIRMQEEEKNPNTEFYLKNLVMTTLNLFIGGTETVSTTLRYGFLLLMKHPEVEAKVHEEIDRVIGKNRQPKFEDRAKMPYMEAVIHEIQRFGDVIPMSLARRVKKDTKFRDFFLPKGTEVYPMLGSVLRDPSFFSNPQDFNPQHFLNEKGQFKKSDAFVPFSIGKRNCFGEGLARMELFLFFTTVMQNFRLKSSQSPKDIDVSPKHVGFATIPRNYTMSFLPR

[5] = tested on: haloperidol-induced catalepsy; test: Haloperidol-induced catalepsy (bar test); type: in vivo, Sprague Dawley rats; conditions: rats, haloperidol 1 mg/kg sc, Rac-THP 10, 20, 30 mg/kg, R-THP or S-THP 5, 10, 15 mg/kg ip
Experimental: Animals: Adult male Sprague Dawley rats (230-235 g) from Envigo were used in this study. Upon receipt, rats were group housed in ventilated cages and acclimated for one week prior to testing.
The front paws of a rat were placed then on a horizontal metal bar raised 6″ above a Plexiglas platform. Each rat underwent 3 trials of 60 seconds each. The test ended when the animal's front paws return to the platform or after 60 seconds. Rats were tested at 30 and 60 minutes after treatment.
Data were analyzed by one-way analysis of variance (ANOVA) followed by Tukey's post-hoc comparisons, where appropriate. Data are represented as mean and standard error to the mean (SEM).

[6] = Experimental: The resulting metabolites were analyzed by liquid chromatography-mass spectrometry, and metabolite peaks were detected and measured.
CYP3A5 = CYP3A5 (Homo sapiens, UniProt P20815); test: Incubation with recombinant CYP3A5
Chain of CYP3A5 (P20815 whole entry): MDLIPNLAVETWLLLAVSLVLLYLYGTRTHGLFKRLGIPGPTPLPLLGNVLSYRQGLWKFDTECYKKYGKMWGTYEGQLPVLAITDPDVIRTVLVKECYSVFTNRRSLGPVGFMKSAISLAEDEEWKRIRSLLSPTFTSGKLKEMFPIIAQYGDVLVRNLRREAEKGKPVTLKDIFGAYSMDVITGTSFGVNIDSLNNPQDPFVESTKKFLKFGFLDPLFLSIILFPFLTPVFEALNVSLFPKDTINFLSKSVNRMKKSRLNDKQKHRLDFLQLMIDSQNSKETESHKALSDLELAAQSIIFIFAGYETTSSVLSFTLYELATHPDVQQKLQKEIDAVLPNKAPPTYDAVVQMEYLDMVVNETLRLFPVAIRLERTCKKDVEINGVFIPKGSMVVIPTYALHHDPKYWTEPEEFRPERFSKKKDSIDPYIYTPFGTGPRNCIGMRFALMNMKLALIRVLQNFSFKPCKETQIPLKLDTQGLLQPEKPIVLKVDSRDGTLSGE

CYP2D6 = CYP2D6 (Homo sapiens, UniProt P10635); test: Incubation with recombinant CYP2D6
Chain of CYP2D6 (P10635 whole entry): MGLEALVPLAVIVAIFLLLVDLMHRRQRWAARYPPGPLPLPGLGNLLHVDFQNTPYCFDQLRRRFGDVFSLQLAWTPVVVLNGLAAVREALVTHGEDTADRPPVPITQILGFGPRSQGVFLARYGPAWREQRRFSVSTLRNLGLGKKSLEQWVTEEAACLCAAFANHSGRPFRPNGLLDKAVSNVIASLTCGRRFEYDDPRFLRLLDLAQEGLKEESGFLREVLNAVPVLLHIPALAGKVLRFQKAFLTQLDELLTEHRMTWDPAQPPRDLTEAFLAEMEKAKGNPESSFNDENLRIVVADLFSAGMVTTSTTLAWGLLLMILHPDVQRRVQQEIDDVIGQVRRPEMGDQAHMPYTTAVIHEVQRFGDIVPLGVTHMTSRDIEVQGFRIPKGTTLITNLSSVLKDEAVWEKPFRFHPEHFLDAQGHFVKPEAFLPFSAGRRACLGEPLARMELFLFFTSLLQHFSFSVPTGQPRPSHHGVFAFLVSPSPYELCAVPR

CYP2C19 = CYP2C19 (Homo sapiens, UniProt P33261); test: Incubation with recombinant CYP2C19
Chain of CYP2C19 (P33261 whole entry): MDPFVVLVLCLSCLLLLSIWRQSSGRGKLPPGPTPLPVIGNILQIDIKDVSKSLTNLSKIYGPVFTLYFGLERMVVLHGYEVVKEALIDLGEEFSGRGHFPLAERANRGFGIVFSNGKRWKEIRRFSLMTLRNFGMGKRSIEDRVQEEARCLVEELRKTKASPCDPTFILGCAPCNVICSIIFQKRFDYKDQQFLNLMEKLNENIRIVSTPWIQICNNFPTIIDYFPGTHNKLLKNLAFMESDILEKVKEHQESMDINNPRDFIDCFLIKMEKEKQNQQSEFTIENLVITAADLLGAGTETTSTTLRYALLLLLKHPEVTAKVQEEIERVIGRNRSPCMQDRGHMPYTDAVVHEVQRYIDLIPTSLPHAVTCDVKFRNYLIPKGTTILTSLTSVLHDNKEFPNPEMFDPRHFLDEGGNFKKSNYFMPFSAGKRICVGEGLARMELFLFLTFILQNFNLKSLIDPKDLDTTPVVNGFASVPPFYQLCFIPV

CYP2C8 = molecular target: T3, CYP2C8 (Homo sapiens, UniProt P10632); test: Incubation with recombinant CYP2C8
T3 sequence (P10632 1-490): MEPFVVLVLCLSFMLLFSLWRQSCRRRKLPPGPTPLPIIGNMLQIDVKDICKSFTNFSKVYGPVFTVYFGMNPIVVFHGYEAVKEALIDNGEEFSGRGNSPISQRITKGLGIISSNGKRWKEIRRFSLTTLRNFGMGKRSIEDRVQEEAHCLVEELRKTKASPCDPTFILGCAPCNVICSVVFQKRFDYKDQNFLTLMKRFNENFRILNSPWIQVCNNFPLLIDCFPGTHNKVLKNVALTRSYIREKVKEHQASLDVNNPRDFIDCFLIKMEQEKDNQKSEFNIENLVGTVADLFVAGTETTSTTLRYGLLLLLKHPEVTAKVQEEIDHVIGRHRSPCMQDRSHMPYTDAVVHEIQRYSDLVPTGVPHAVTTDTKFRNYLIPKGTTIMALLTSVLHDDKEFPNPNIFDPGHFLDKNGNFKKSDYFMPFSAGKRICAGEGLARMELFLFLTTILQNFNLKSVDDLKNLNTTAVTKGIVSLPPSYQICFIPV

CYP2E1 = CYP2E1 (Homo sapiens, UniProt P05181); test: Incubation with recombinant CYP2E1
Chain of CYP2E1 (P05181 whole entry): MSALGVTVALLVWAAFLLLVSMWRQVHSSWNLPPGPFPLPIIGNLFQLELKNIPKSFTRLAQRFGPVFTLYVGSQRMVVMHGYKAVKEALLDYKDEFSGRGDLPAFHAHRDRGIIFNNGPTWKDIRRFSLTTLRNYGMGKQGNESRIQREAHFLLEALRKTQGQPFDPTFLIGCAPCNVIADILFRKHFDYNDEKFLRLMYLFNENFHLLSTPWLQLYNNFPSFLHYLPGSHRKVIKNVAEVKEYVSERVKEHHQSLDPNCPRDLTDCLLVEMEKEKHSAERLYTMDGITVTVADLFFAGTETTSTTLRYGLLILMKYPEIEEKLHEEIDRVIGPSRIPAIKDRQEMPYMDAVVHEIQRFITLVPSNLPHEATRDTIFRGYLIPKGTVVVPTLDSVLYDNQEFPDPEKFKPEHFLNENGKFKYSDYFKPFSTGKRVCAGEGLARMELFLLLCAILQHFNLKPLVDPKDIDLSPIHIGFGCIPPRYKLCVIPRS

CYP2B6 = molecular target: T4, CYP2B6 (Homo sapiens, UniProt P20813); test: Incubation with recombinant CYP2B6
T4 sequence (P20813 1-491): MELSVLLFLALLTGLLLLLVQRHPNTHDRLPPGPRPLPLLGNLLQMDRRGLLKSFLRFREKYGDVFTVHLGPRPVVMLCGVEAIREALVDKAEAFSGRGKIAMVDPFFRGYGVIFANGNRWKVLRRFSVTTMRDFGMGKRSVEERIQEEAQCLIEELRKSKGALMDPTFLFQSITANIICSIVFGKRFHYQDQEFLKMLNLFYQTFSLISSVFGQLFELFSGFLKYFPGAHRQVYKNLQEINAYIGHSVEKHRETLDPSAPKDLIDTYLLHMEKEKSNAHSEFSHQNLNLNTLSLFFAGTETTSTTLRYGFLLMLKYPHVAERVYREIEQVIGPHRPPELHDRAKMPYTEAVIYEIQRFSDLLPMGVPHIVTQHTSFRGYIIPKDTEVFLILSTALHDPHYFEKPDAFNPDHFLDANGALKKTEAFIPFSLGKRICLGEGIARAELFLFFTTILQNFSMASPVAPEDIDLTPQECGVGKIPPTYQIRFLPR

CYP3A4 = CYP3A4 (Homo sapiens, UniProt P08684); test: Incubation with recombinant CYP3A4
Chain of CYP3A4 (P08684 whole entry): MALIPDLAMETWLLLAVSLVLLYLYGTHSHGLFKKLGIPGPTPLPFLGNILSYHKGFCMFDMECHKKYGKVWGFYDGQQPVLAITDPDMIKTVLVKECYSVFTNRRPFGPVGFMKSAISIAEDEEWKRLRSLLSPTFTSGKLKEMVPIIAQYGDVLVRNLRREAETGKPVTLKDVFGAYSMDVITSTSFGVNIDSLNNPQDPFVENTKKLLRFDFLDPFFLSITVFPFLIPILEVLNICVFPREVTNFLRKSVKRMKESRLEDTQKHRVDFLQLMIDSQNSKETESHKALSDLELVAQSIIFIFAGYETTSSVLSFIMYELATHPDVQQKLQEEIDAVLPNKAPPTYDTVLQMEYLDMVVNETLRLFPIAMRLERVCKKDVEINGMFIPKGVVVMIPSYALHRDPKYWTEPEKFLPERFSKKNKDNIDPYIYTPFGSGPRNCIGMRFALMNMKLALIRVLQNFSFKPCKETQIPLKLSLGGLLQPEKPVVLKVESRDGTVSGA

[7] = cumulative concentration response curve, no pre-treatment

Compound: CC(C[N+](C)(C)C)OC(N)=O (racemic) [BTC, bethanechol]
% Baseline tear production (tear production; 1 hour post administration): 107% | % Baseline tear production (tear production; 4 hours post administration): 117% | change over baseline ([1]; BTC at 30 μM following pre-treatment with Rac-THP at 30 nM): up to 50% | response of EFS-stimulated MPLM strips [1, 7]: concentration-dependent contraction | response of EFS-stimulated MPLM strips ([1]; following pre-treatment with Rac-THP at 30 nM): concentration-dependent relaxation of the isolated MPLM strips back to baseline

Compound: Mevinolin
Remaining Percentages (%) 0 min [2]: 100.00% | Remaining Percentages (%) 15 min [2]: 9.32% | Remaining Percentages (%) 30 min [2]: 1.68% | Remaining Percentages (%) 60 min [2]: 2.21% | Remaining Percentages (%) 120 min [2]: 2.47% | t1/2 [2]: 4.38 min

Remaining Percentages (%) 0 min ([3]; dog whole blood, 37C): 100.00% | Remaining Percentages (%) 15 min ([3]; dog whole blood, 37C): 91.17% | Remaining Percentages (%) 30 min ([3]; dog whole blood, 37C): 90.30% | Remaining Percentages (%) 60 min ([3]; dog whole blood, 37C): 85.38% | Remaining Percentages (%) 120 min ([3]; dog whole blood, 37C): 62.08% | half-life at 5 μM ([3]; dog, whole blood): 184 min | Remaining Percentages (%) 0 min ([4]; human whole blood, 37C): 100.00% | Remaining Percentages (%) 15 min ([4]; human whole blood, 37C): 71.54% | Remaining Percentages (%) 30 min ([4]; human whole blood, 37C): 57.19% | Remaining Percentages (%) 60 min ([4]; human whole blood, 37C): 25.74% | Remaining Percentages (%) 120 min ([4]; human whole blood, 37C): 6.31% | half-life at 5 μM ([4]; human, whole blood): 31 min
Compound: CC(C)[N+](C)(CCOC(=O)C1c2ccccc2Oc2ccccc21)C(C)C [Propantheline]

Compound: OC(CCN1CCCCC1)(c1ccccc1)C1CCCCC1 (racemic) [Rac-THP, racemic trihexyphenidyl]
CLint (CYP2C9): 0.00 µL/min/pmol | t1/2 (CYP2C9; unit not given): ∞ | Substrates of CYP1A2 (CYP1A2): S and Rac | CLint (CYP2A6): 0.00 µL/min/pmol | t1/2 (CYP2A6; unit not given): ∞ | time spent holding bar, haloperidol-induced catalepsy ([5]; 30 minutes after injection): significantly attenuated haloperidol-induced catalepsy | time spent holding bar, haloperidol-induced catalepsy ([5]; 60 minutes after injection): significantly attenuated haloperidol-induced catalepsy | metabolites detected [6]: metabolite 18 when incubated with microsomes, but additional metabolites 13, 14, and 16 were also observed | Substrates of CYP3A5 (CYP3A5): Rac, R and S | Substrates of CYP2D6 (CYP2D6): Rac, R and S | response of EFS-stimulated MPLM strips [1, 7]: concentration-dependent relaxation response | Substrates of CYP2C19 (CYP2C19): Rac, R and S | CLint (CYP2C8): 0.00 µL/min/pmol | t1/2 (CYP2C8; unit not given): ∞ | CLint (CYP2E1): 0.00 µL/min/pmol | t1/2 (CYP2E1; unit not given): ∞ | CLint (CYP2B6): 0.00 µL/min/pmol | t1/2 (CYP2B6; unit not given): ∞ | Substrates of CYP3A4 (CYP3A4): Rac, R and S

Compound: O=C(CCCN1CCC(O)(c2ccc(Cl)cc2)CC1)c1ccc(F)cc1 [haloperidol, Haloperidol]
time spent holding bar, haloperidol-induced catalepsy ([5]; 30 minutes after injection): significantly increased the time the rats spend holding the bar | time spent holding bar, haloperidol-induced catalepsy ([5]; 60 minutes after injection): significantly increased the time the rats spend holding the bar
